Data from patent US12139520B2 (priority 2020, dated 2024).
Read-outs that look alike come from different tables or passages of the source. Numbered stars: 1 amine (or outer) side, 2 acyl side, 3 side chain; on linkers, the order of the positions; unused ones are H or OH. Bridge positions count the residues as written; N and C are the ends. Square brackets hold non-standard residues; d marks the D form. Peptide text beside a SMILES is read from it. * marks the point of attachment. C20 diacid = O=C(O)CCCCCCCCCCCCCCCCCCC(=O)*; γGlu = O=C(O)[C@H](CCC(=O)[*:2])N[*:1]; Hyp = O=C(O)[C@@H]1C[C@@H](O)CN1

How the values were obtained:
hAMY3 receptor = molecular target: T1, hAMY3 receptor (Homo sapiens, UniProt O60896+P30988); assay: cAMP assay for in vitro receptor activation, hAMY3-R; type: cell-based
T1 sequence (P30988 25-474): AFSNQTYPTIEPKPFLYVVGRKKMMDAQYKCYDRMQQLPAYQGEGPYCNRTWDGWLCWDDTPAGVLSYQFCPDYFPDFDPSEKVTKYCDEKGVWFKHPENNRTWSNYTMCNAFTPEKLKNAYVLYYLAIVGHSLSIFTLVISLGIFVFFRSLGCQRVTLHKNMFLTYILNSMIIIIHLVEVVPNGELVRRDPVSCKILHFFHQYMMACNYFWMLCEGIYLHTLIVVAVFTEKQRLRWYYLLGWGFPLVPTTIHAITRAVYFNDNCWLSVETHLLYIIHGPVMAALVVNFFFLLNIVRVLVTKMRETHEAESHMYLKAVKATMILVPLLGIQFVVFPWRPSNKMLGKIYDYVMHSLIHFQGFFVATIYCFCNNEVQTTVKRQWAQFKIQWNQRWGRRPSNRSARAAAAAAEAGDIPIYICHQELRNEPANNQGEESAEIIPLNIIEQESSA
T1 sequence (O60896 24-148 partner): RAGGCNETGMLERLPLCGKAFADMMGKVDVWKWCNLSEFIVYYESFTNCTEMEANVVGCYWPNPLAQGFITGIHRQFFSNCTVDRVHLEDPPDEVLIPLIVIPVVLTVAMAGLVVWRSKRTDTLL
Procedure, shortened: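 Monoclonal cell line stably overexpressing hAMY3 receptor, plated in DPBS with 0.05% casein and 0.5 mM IBMX, was stimulated with graded compound doses for 30 min at room temperature. cAMP accumulation was read by time-resolved FRET one hour after adding detection reagents.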

[1] = Physical stability of peptide analogues (Thioflavin T fibrillation); type: physicochemical; conditions: maximum ThT signal normalized between hAMY maximum and buffer background; 40° C., shaking, four days; pH 7 per table title
Procedure, shortened: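 Peptides in 50 mM sodium acetate pH 4 or 50 mM sodium phosphate pH 7 were preincubated 1 h, mixed with 4 μM ThT, held at 40° C with 700 rpm shaking before each read. Fluorescence (ex 450/em 480 nm) every 10 min for four days; LOESS-smoothed maximum signal normalized in percent between hAMY and buffer.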

[2] = Acute food intake study in lean rats; type: in vivo, rat; conditions: single SC injection, lean healthy rats; for Average cumulative food intake: up to 48 h, P < 0.001 vs vehicle
Procedure: General Protocols for Acute Food Intake Study
The effect on cumulative food intake was measured in male Sprague Dawley rats (6 weeks of age, Taconic, Denmark) following a single dose using a fully automated food intake monitoring system (HM-2; MBRose ApS, Faaborg, Denmark), allowing for advanced synchronous real-time monitoring of food intake behaviour of individual animals. The animals were housed in groups of 4 in a light-, temperature-, and humidity-controlled room (a 12/12 LD cycle, lights on at 02:00 AM; 22±2° C.; 50% relative humidity). The mice had ad libitum access to regular chow diet (Altromin 1324, Brogaarden A/S, Lynge, Denmark) and domestic quality tap water. Mice arrived at day 7, and a minimum of 5 days of habituation to the system was allowed prior to beginning of the study. During these days, the animals were handled daily to accustom them to the experimental paradigm. On the day of dosing, the animals were randomized into groups according to body weight. Animals were fasted for four hours prior to dosing. Animals were dosed SC 30 or 180 min prior to lights out, and food intake data were collected automatically for a total of 48 h post-dosing with automatic food recordings every 5 min.

[3] = Chronic diet-induced obesity (DIO) study in rats; type: in vivo, rat; conditions: for Average body weight day 28 (gram): P < 0.001 vs vehicle
Source text: General Protocols for Chronic Diet-Induced Obesity (DIO) Study
Sprague-Dawley rats (Taconic, Denmark) arrived at the age of 5 weeks. After one week of acclimation, they were evenly grouped based on their baseline body weight and offered ad libitum access a two-choice diet consisting of chow pellet (Altromin #1324, Brogaarden, Lynge, Denmark) and a high palatable high sugar/fat diet (1:1:1 mixture of Nutella (Ferrero, Alba, Italy), peanut butter (PCD, Rotterdam, Netherlands) and powdered standard chow (Altromin #1324, Brogaarden, Lynge, Denmark); 29.3% fat, 33.2% carbohydrate, and 18% protein) for up to 36 weeks. The rats were pair-housed throughout the study under controlled environmental conditions (12-hour light/dark cycle, lights off at 15:00; 22±1° C.; 50±10% relative humidity). Body weight, food and water intake were monitored daily during the entire period of the study. One day before the experiment, the rats were randomized according to body weight into experimental groups (n=9-10), which received compound or vehicle SC. QD (once daily) for 28 days.

hAM1 receptor = hAM1 receptor (Homo sapiens, UniProt O60895+Q16602); assay: cAMP assay for in vitro receptor activation, hAM1-R; type: cell-based
hAM1 receptor, sequence (Q16602 23-461): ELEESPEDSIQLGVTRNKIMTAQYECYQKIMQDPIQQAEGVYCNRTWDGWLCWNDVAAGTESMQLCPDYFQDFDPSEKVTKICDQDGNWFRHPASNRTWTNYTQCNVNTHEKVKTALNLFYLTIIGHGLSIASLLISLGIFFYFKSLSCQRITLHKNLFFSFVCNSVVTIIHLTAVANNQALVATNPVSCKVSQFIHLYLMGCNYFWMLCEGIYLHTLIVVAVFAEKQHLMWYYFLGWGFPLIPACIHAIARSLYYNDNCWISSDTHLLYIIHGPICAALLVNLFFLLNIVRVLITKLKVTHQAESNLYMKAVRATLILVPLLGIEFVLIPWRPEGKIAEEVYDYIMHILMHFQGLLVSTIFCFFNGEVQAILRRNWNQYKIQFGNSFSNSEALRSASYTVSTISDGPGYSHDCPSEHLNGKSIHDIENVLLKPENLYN
hAM1 receptor, sequence (O60895 43-175 partner): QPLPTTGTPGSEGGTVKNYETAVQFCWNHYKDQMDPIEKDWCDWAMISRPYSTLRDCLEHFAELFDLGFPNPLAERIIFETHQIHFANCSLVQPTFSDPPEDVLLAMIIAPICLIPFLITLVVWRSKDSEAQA
Procedure, shortened: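 Receptor activation, read as cAMP, was assessed in thawed cells of a monoclonal hAM1-overexpressing stable line, plated at 8000 cells/well in DPBS supplemented with 0.05% casein and 0.5 mM IBMX.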

[4] = 1 nmol/kg SC once daily for 28 days
[5] = 3 nmol/kg SC once daily for 28 days
[6] = 10 nmol/kg SC once daily for 28 days

Structure (SMILES) | EC50 (hAMY3 receptor; cAMP assay, hAMY3 receptor, read-out: hAMY3R EC50) [nM] | Max ThT signal (%) [1] [%] | cumulative food intake, % to vehicle ([2]; 10 nmol/kg) [%] | Average cumulative food intake ([2]; 10 nmol/kg) [g] | cumulative food intake, % to vehicle ([2]; 30 nmol/kg) [%] | Average cumulative food intake ([2]; 30 nmol/kg) [g] | body weight day 28, % to vehicle [3, 4] [%] | Average body weight day 28 (gram) [3, 4] [gram] | body weight day 28, % to vehicle [3, 5] [%] | Average body weight day 28 (gram) [3, 5] [gram] | body weight day 28, % to vehicle [3, 6] [%] | Average body weight day 28 (gram) [3, 6] [gram] | EC50 (hAMY3 receptor) [nM] | EC50 (hAM1 receptor) [nM]
CC[C@H](C)[C@H](NC(=O)[C@H](CC(N)=O)NC(=O)[C@@H](NC(=O)[C@H](CCCNC(=N)N)NC(=O)[C@@H]1CCCN1C(=O)[C@H](C)NC(=O)[C@@H](NC(=O)[C@H](CC(N)=O)NC(=O)[C@H](CC(=O)O)NC(=O)[C@H](CCCCN)NC(=O)[C@H](CC(=O)O)NC(=O)[C@H](CCCCN)NC(=O)[C@H](CC(=O)O)NC(=O)[C@@H](NC(=O)[C@H](Cc1ccccc1)NC(=O)[C@H](CCC(N)=O)NC(=O)[C@H](Cc1ccc(O)cc1)NC(=O)[C@@H](NC(=O)[C@H](CCC(N)=O)NC(=O)[C@H](Cc1c[nH]cn1)NC(=O)[C@H](C)NC(=O)[C@H](CC(C)C)NC(=O)[C@H](CCCNC(=N)N)NC(=O)[C@H](CCC(N)=O)NC(=O)[C@@H](NC(=O)[C@@H](NC(=O)[C@@H]1CSSC[C@H](NC(=O)CN)C(=O)N[C@@H](CCCNC(=N)N)C(=O)N[C@@H](Cc2ccccc2)C(=O)NCC(=O)N[C@@H]([C@@H](C)O)C(=O)N1)[C@@H](C)O)C(C)C)[C@@H](C)CC)[C@@H](C)O)C(C)C)[C@@H](C)O)C(=O)NCC(=O)N1CCC[C@H]1C(=O)N[C@@H](CCC(N)=O)C(=O)NCC(=O)N1C[C@H](O)C[C@H]1C(N)=O [compound 46] (H-GCRFGTCTVQRLAHQIYQFTDKDKDNVAPRTNIGPQG[Hyp]-NH2; disulfide 2-7; N-terminus assumed) | 0.011 | 5.800 | 52.48 | 23.3 | 24.10 | 10.7 | 94.13 | 674 | 86.59 | 620 | 86.31 | 618 |  | 
CC[C@H](C)[C@H](NC(=O)[C@H](CCC(N)=O)NC(=O)[C@H](CCC(=O)O)NC(=O)[C@H](C)NC(=O)[C@H](CC(C)C)NC(=O)[C@H](CCCNC(=N)N)NC(=O)[C@H](CCC(N)=O)NC(=O)[C@@H](NC(=O)[C@@H](NC(=O)[C@@H]1CSSC[C@H](NC(=O)[C@H](CCCCN)NC(=O)CC[C@H](NC(=O)CCCCCCCCCCCCCCCCCCC(=O)O)C(=O)O)C(=O)N[C@@H](CC(N)=O)C(=O)N[C@@H]([C@@H](C)O)C(=O)N[C@@H](C)C(=O)N[C@@H]([C@@H](C)O)C(=O)N1)[C@@H](C)O)C(C)C)C(=O)N[C@@H](C)C(=O)N[C@@H](CCC(N)=O)C(=O)N[C@@H](Cc1ccccc1)C(=O)N[C@H](C(=O)N[C@@H](CC(=O)O)C(=O)N[C@@H](CCCCN)C(=O)N[C@@H](CC(=O)O)C(=O)N[C@@H](CCCCN)C(=O)N[C@@H](CC(=O)O)C(=O)N[C@@H](CC(N)=O)C(=O)N[C@H](C(=O)N[C@@H](C)C(=O)N1CCC[C@H]1C(=O)N1CCC[C@H]1C(=O)N[C@H](C(=O)N[C@@H](CC(N)=O)C(=O)N[C@H](C(=O)NCC(=O)N[C@@H](CO)C(=O)N[C@@H](CC(N)=O)C(=O)NCC(=O)N1C[C@H](O)C[C@H]1C(N)=O)C(C)C)[C@@H](C)O)C(C)C)[C@@H](C)O [compound 78] ({C20 diacid-γGlu}-KCNTATCTVQRLAEQIAQFTDKDKDNVAPPTNVGSNG[Hyp]-NH2; disulfide 2-7) |  |  | 33.66 | 13.7 |  |  |  |  |  |  | 88.53 | 687 | 0.014 | > 5000
